The numbers were not newly measured in patent US20180140572A1, “COMPOSITIONS COMPRISING A CANCER STEMNESS INHIBITOR AND AN IMMUNOTHERAPEUTIC AGENT FOR USE IN TREATING CANCER” (Boston Biomedical, Inc., priority 2015, published 2018), which cites them from elsewhere.

The data set deals with microsatellite stable (MSS) metastatic colorectal cancer (mCRC). To be noted: patients with MSS mCRC, cited from earlier work.

“pembrolizumab: immunotherapeutic agent that binds to PD-1”: the disease control rate is recorded as 11%, the effectiveness result is recorded as “not effective”, the “immune-related objective response rate” value is on record as 0% and the response rate is reported as 0%. Moreover, the “immune-related progression-free survival at 20 weeks” value (20 weeks) is 11%.
